Earlier results, collected in US11089780B2, “Pendimethanlin microcapsules with a shell made of tetramethylxylylene diisocyanate and a polyamine with at least three amine groups” (BASF SE, priority 2015, dated 2021).

Conditions: at 25° C.

CCC(CC)Nc1c([N+](=O)[O-])cc(C)c(C)c1[N+](=O)[O-] [Pendimethalin, 3,4-dimethyl-2,6-dinitro-N-pentan-3-yl-aniline]
Vapor pressure: about 2 mPa
